Values after ≈ are worked out from the molar mass of the structure shown. Blank lines part the entries; values can stand above or below the molecule they belong to.
Experiments:
Solubility = type: physicochemical
[1] = test system: Til-1 murine lymphocyte cells; experiment: Mitigation of radiation-induced apoptosis in vitro: viability of irradiated Til-1 cells (ATPlite) screen; type: cell-based; details: Mus musculus, light or radiation study, added 1 hour after 2 Gy, viability 24 h after radiation, relative to control irradiated value (100%), read-out: In Vitro (Mitigation cell viability %)
Protocol: The ability of compounds from Example 1 to mitigate radiation-induced apoptosis in vitro relative to control values (100%) is shown in FIG. 1. Briefly, 100,000 small-molecules were screened at 10 μM final concentration in 1% dimethylsulfoxide (DMSO) using the viability of a murine lymphocyte line as a readout (Mitigation cell viability %). Ten thousand Til-1 murine lymphocyte cells were dispensed into each well of 384-well plates using a Multidrop 384 (Thermo Scientific, Waltham, Mass.) The Til-1 cells were irradiated at the dose of 2 Gy. After 1 hour, the small-molecules were added. Twenty-four hours after the radiation, cell viability was assayed by luminesce-based measurement of ATP production (ATPlite, Perkin-Elmer, Waltham, Mass.) with a SpectraMax M5 microplate reader (Molecular Devices, Sunnyvale, Calif.). The Z′ factor for the assay was >0.5. See Zhang, J. H., Chung, T. D., Oldenburg, K. R. “A Simple Statistical Parameter for Use in Evaluation and Validation of High Throughput Screening Assays,” J Biomol Screen 4:67, 1999. A positive readout was >130% of the control irradiated value.

[2] = test system: induced peritoneal macrophages; experiment: Activation status of induced peritoneal macrophages after subcutaneous treatment of control or WBI mice; type: in vivo; details: for TNF-α production of induced peritoneal cells in response to LPS after treatment in vivo: compound given subcutaneously, macrophages harvested day 4, incubated 24 h with LPS
Protocol: To determine if compound 2 (5355512), injected subcutaneously would affect the activation status of induced peritoneal macrophages, compound 2 (5355512) was given subcutaneously to control or WBI (5 Gy) and peritoneal macrophages harvested at day 4 as before. Cells from these groups of mice were incubated for 24 h with LPS or LPS then 512 (See FIG. 12). […] However, this “priming” effect was less when WBI and Compound 2 (5355512) were combined in vivo.

C3H mice and C57 mice = experiment: Local thoracic irradiation, radiation pneumonitis and fibrosis; type: in vivo; details: local thoracic irradiation 14 and 18 Gy
C57Bl/6 mice = experiment: Localized abdominal irradiation survival; type: in vivo; details: 16 and 18 Gy abdominally
TNF-α production = TNF-α production by LPS-stimulated peritoneal macrophages (ELISA); type: cell-based, murine; details: for TNF-α production: added to stimulated peritoneal macrophages 1 hr after LPS, supernatants at 24 hrs, ELISA
Protocol: NPSPs were tested for their anti-inflammatory ability using murine macrophages. […] Briefly, peritoneal macrophages (PMs) were induced by intraperitoneal, injection of 150 μg MIS416 (Innate Immunotherapeutics, NZ) and harvested on day 4 by peritoneal wash out with PBS. Culture supernatants were harvested at 24 hrs and cytokines tested by ELISA (BD Biosciences, SD).

[3] = test system: C3Hf/Kam and C57B16/J mice; experiment: Animal Whole Body Irradiation (WBI) assay, mitigation of lethality; type: in vivo; details: for Mitigation of WBI lethality at 5 mg/kg: 5 mg/kg injected subcutaneously; for Most effective dose in dose response: C3H male mice, compared with 1, 2, 10, 40, or 75 mg/kg; for Mitigation of WBI lethality in C57Bl/6 female mice: LD70/30 dose 8.509 Gy; for Survivors at day 30: lowest dosage 5 mg/kg subcutaneously, superior to 40 and 75 mg/kg; for Mitigation of WBI lethality, oral gavage 5 mg/kg / Mitigation of WBI lethality, oral gavage 25 mg/kg: orally by gavage, 5 daily doses starting 24 hours post-WBI, C3H and C57Bl/6 strains; for Effect of increasing the single dose: single dose increased to 25 mg/kg, 24 hours after WBI; for Mitigation of WBI lethality, single dose: single dose of 5 mg/kg given 24 hours after WBI
Protocol: Briefly, Animal Whole Body Irradiation (WBI) Assays were conducted with C3Hf/Kam and C57B16/J mice. The mice were bred and maintained in a strict gnotobiotic environment in the American Association of Laboratory Animal Care-Accredited Animal Facilities of Department of Radiation Oncology, UCLA. The Animal Care and Use Committee approved all experiments, which were performed in accordance with all local and national guidelines for the care and use of animals. Mice, 9-12 weeks old, were given WBI using a Gamma cell 40 irradiator (Cs137 source; Atomic Energy of Canada, Ltd.) at a dose rate of […]. Mice were monitored for at least 30 days and defined criteria for humane euthanasia was used as an endpoint.
Compounds were typically dissolved in 15 μL DMSO and suspended in 1 mL of 1% Cremphor EL in water for administration in 0.2 mL volumes. […] All mice, including controls, received the same diluent as the experimental groups. The chosen compounds were administered to the mice 5 times at 24 h intervals, starting 24 hours after WBI at LD70/30 (7.725 Gy for the C3H strain) doses. Similar data were obtained with a single dose and at 48 hours after radiation exposure in both mouse strains. Both subcutaneous and oral routes were effective. The compounds provided greatly elevated animals survival level as compared to control group.
Dose response experiments were executed in a manner similar to the WBI Assay described in Example 3. […] Both Compound 2 (53555.12) and Compound 3 (5346360) were effective in C57Bl/6 female mice in this case mitigating against LD70/30 doses of 8.509 Gy due to the relative radioresistance of this strain relative to C3Hs. […] When given orally by gavage, Compound 2 (535551.2) in 5 daily doses starting at 24 hours post-WBI was effective at 5 mg/kg in both C3H and C57Bl/6 strains, but not at 25 mg/kg.
Probit analyses of the effect of varying the radiation dose with Compound 2 (5355512) (5 mg/kg), and Compound 3 (5346360) (5 mg/kg), or 5 (5116319) (75 mg/kg) given subcutaneously for 5 days starting 24 hours after WBI, is shown in FIG. 6, with 95% confidence limits shown for LD50 values. The dose-response curves are steep with the dose modifying factors varying with the level of effect and drug, but were in the range 1.04-1.09. Such factors have to be considered against the level of the control and the reason for lethality. In this case, hematological insufficiency and not infection is the cause of death and as a result the radioresistance of the C3H strain is relatively high.
Compounds P1, P2, and P3, analogs of Compound 2 (5355512), were synthesized according to standard protocols. […] The analogs were injected subcutaneously 5 times over 5 clays at 5 mg/kg. Compound P2 elicited 100% survival after 30 days.

myeloid suppressor cells = experiment: In vivo anti-inflammatory activity, generation of myeloid suppressor cells; details: data not shown
[4] = test system: endogenous colony forming units in the spleens; experiment: Endogenous colony forming units in spleens after WBI; type: in vivo, mice; details: for Average endogenous CFU per spleen / Total endogenous CFU in spleens: 10 days after WBI at 6.5 Gy, 7.0 Gy, and 7.5 Gy
Excerpt: For example, Compound 2 (5355512) increased the total endogenous CFU in spleens and average endogenous CFU per spleen, at 10 days after whole body irradiation (WBI) at varying doses (e.g. 6.5 Gy, 7.0 Gy, and 7.5 Gy). (See FIG. 13).

TNF-α mRNA = experiment: Cytokine mRNA expression in LPS-stimulated bone marrow-derived macrophages (qPCR); type: cell-based, murine; details: added to bone marrow-derived macrophages 1 hr after LPS, RT-PCR
Protocol: Additionally, bone marrow-derived macrophages (BMDMs) were derived by 7 days culture of marrow cells in medium containing 10% FBS and CSF-1 conditioned medium. The serum concentration was reduced to 2% FBS 16 h before stimulation with LPS for 30 min, treatment with drug and incubation for another 3.5 h (4 h total with LPS). Total cellular RNA was isolated by trizol and cDNA synthesized using iScript from BioRad. Gene expression was measured by qPCR and analyzed using the standard curve method, normalized to L32.

[5] = test system: Lewis lung (LLC) tumor lung colonies; experiment: Lewis lung (LLC) model of artificial metastasis; type: in vivo, mice
Protocol: The Lewis lung (LLC) model of artificial metastasis was used to test the effects of the drug on the growth of tumor lung colonies in vivo and on radiation response. This was chosen because it is easy to see any drug effects on growth promotion and radioprotection in multiple tumors simultaneously. Specifically, C57Bl/6 mice and C3H mice were injected intravenously with 5×10^4 tumor cells. Subcutaneous injections of compound 2 (5355512) were started on day 4 when the tumors were already established in the lung. A daily dose of 20 mg/kg for 5 days was used to bias the experiment in favor of any tumor growth promotion. Local thoracic irradiation (LTI) was started on day 5 with 4 Gy daily doses for 3 days. This is higher than conventional 2 Gy to compensate for the rapid growth of murine tumors, but is still well within the higher ranges used clinically in hypofractionated exposures. The colonies were counted on day 14. […] LTI alone decreased the number of colonies by 40%.

[6] = Breakdown products identified in vivo by mass spectrometry; details: analog of Compound 2
[7] = injected subcutaneously 5 times over 5 days at 5 mg/kg

solubility (Solubility): 26.6 µM (≈ 9.72 µg/mL)
SMILES: O=[N+]([O-])c1ccc(S(=O)(=O)N2CCN(c3ccc(F)cc3)CC2)cc1 [Compound 1, 1-(4-fluorophenyl)-4-[(4-nitrobenzene)sulfonyl]piperazine]
viability at 10 µM [1]: 188%

SMILES: O=[N+]([O-])c1ccc(S(=O)(=O)N2CCN(c3ccccc3)CC2)cc1 [Compound 2, 1-[(4-nitrobenzene)sulfonyl]-4-phenylpiperazine]
Priming effect when WBI and compound combined in vivo ([2]; WBI (5 Gy) plus compound subcutaneously): less | TNF-α production of induced peritoneal cells in response to LPS after treatment in vivo [2]: “primed” induced peritoneal cells to produce TNF-α | TNF-α production of induced peritoneal cells in response to LPS after treatment in vivo ([2]; listed as compound 2): induces peritoneal macrophages to produce TNF-α | TNF-α production after addition of compound in vitro ([2]; harvested cells incubated with LPS then compound): blunted TNF-α production | Survival post thoracic radiation (C3H mice and C57 mice): supported survival of C3H mice and C57 mice to 100 days | Mitigation of abdominal radiation (C57Bl/6 mice): mitigation of abdominal radiation | TNF-α production (TNF-α production): inhibit TNF-α production | Anti-inflammatory activity: LPS-induced production of tumor necrosis factor and other inflammatory cytokines (TNF-α production; murine macrophages): showed anti-inflammatory activity | solubility (Solubility): 66.1 µM (≈ 23 µg/mL) | Mitigation of WBI lethality at 5 mg/kg [3]: effective | Most effective dose in dose response [3]: 5 mg/kg | Mitigation of WBI lethality in C57Bl/6 female mice [3]: effective | Survivors at day 30 [3]: 100% | Mitigation of WBI lethality, oral gavage 5 mg/kg [3]: effective | Mitigation of WBI lethality, oral gavage 25 mg/kg [3]: not | Mitigation of WBI lethality, single dose at 48 hours ([3]; single dose given 48 hours after WBI): Some activity was retained | Mitigation of WBI lethality, single dose at 72 hours ([3]; single dose given 72 hours after WBI): not | Effect of increasing the single dose [3]: did not improve efficacy | Mitigation of WBI lethality, single dose [3]: effective | Anti-inflammatory activity in vivo (myeloid suppressor cells): showed anti-inflammatory activity | Average endogenous CFU per spleen [4]: increased | Total endogenous CFU in spleens [4]: increased | Average endogenous CFU per spleen ([4]; listed as compound 2): increases | Total endogenous CFU in spleens ([4]; listed as compound 2): increases | Number of endogenous colony forming units in the spleens ([4]; mice that had received LD70/30 radiation doses): increased | Expression of TNF-α mRNA and other cytokines (TNF-α mRNA): inhibit expression of TNF-α mRNA, and other cytokines | viability at 10 µM [1]: 182% | Number of colonies with LTI plus drug versus LTI alone ([5]; 20 mg/kg daily for 5 days plus local thoracic irradiation 4 Gy daily for 3 days from day 5): not further decreased | Decrease in number of lung tumor colonies ([5]; 20 mg/kg subcutaneously daily for 5 days from day 4, colonies counted day 14, P<0.05): 20% | Size of lung tumor colonies ([5]; 20 mg/kg subcutaneously daily for 5 days from day 4, day 14): smaller in size

SMILES: O=[N+]([O-])c1ccc(S(=O)(=O)N2CCN(c3cccc(Cl)c3)CC2)cc1 [Compound 3]
TNF-α production (TNF-α production): inhibit TNF-α production | solubility (Solubility): 6.5 µM (≈ 2.48 µg/mL) | Mitigation of WBI lethality at 5 mg/kg [3]: effective | Most effective dose in dose response [3]: 5 mg/kg | Mitigation of WBI lethality in C57Bl/6 female mice [3]: effective | Survivors at day 30 [3]: 100% | Mitigation of WBI lethality, oral gavage 5 mg/kg [3]: inactive | Mitigation of WBI lethality, oral gavage 25 mg/kg [3]: inactive | Effect of increasing the single dose [3]: did not improve efficacy | Mitigation of WBI lethality, single dose [3]: effective | Expression of TNF-α mRNA and other cytokines (TNF-α mRNA): inhibit expression of TNF-α mRNA, and other cytokines | viability at 10 µM [1]: 174%

solubility (Solubility): 20.4 µM (≈ 7.9 µg/mL)
SMILES: O=[N+]([O-])c1ccc(S(=O)(=O)N2CCN(C/C=C/c3ccccc3)CC2)cc1 [Compound 4, 1-[(4-nitrobenzene) Sulfonyl]-4-[(2E)-3-phenylprop-2-en-1-yl]piperazine]
viability at 10 µM [1]: 163%

solubility (Solubility): 513 µM (≈ 132 µg/mL)
SMILES: CCN(CC)S(=O)(=O)c1ccc([N+](=O)[O-])cc1 [Compound 5, N,N-diethyl-4-nitrophenyl-1-sulfonamide]
TNF-α production (TNF-α production): able to inhibit TNF-α production | viability at 10 µM [1]: 161%

SMILES: O=[N+]([O-])c1ccc(S(=O)(=O)N2CCNCC2)cc1 [Compound P1]
Solubility in water (Solubility): soluble in water | Mitigation of WBI lethality by analogs [3, 7]: effective | Breakdown product identification [6]: natural breakdown product identified in vivo

SMILES: NCCNS(=O)(=O)c1ccc([N+](=O)[O-])cc1 [Compound P2]
Solubility in water (Solubility): soluble in water | Survival after 30 days [3, 7]: 100%

Solubility in water (Solubility): soluble in water
SMILES: NCCCCCCCCNS(=O)(=O)c1ccc([N+](=O)[O-])cc1 [Compound P3]
